Calls of active or inactive are those of the source. The calls are words filed in the database; no cut-off is given here.
Legend:
Plasmodium falciparum [1] = assay: Antiplasmodial activity against synchronized ring stage Plasmodium falciparum 3D7 infected in human erythrocytes assessed as reduction in parasite growth incubated for 72 hrs by Giemsa staining based light microscopic method; format: functional, organism-based; conditions: 3D7, Erythrocyte
Plasmodium falciparum [2] = assay: Antiplasmodial activity against synchronized ring stage Plasmodium falciparum Dd2 infected in human erythrocytes assessed as reduction in parasite growth incubated for 72 hrs by Giemsa staining based light microscopic method; format: functional, organism-based; conditions: Dd2, Erythrocyte
HepG2 = assay: Cytotoxicity against human HepG2 cells assessed as reduction in cell viability incubated for 72 hrs by cell titer glo assay; format: cell-based; conditions: HepG2, 72 h
HEK-293T = assay: Cytotoxicity against human HEK293T cells assessed as reduction in cell viability incubated for 72 hrs by cell titer glo assay; format: cell-based
[3] = Selectivity index, ratio of IC50 for cytotoxicity against human HepG2 cells assessed to IC50 for antiplasmodial activity against synchronized ring stage Plasmodium falciparum 3D7 infected in human erythrocytes; format: toxicity, cell-based; conditions: read-out: Ratio IC50
[4] = Selectivity index, ratio of IC50 for cytotoxicity against human HEK293T cells assessed to IC50 for antiplasmodial activity against synchronized ring stage Plasmodium falciparum 3D7 infected in human erythrocytes; format: toxicity, cell-based; conditions: read-out: Ratio IC50
Plasmodium falciparum [5] = assay: Antiplasmodial activity against Plasmodium falciparum GB4 infected in human erythrocytes assessed as reduction in parasite growth incubated for 72 hrs by Giemsa staining based light microscopic method; format: functional, organism-based; conditions: GB4, Erythrocyte
Plasmodium falciparum [6] = assay: Antiplasmodial activity against Plasmodium falciparum C2A infected in human erythrocytes assessed as reduction in parasite growth incubated for 72 hrs by Giemsa staining based light microscopic method; format: functional, organism-based; conditions: Erythrocyte
Plasmodium falciparum [7] = assay: Antiplasmodial activity against Plasmodium falciparum CP286 infected in human erythrocytes assessed as reduction in parasite growth incubated for 72 hrs by Giemsa staining based light microscopic method; format: functional, organism-based; conditions: CP286, Erythrocyte
Plasmodium falciparum [8] = assay: Antiplasmodial activity against artemisinin-resistant Plasmodium falciparum 6218 infected in human erythrocytes assessed as reduction in parasite growth incubated for 72 hrs by Giemsa staining based light microscopic method; format: functional, organism-based; conditions: Plasmodium falciparum, 6218, Erythrocyte
Plasmodium falciparum [9] = assay: Antiplasmodial activity against artemisinin-resistant ring stage Plasmodium falciparum 6320 infected in human erythrocytes assessed as reduction in parasite growth incubated for 72 hrs by Giemsa staining based light microscopic method; format: functional, organism-based; conditions: Plasmodium falciparum, 6320, Erythrocyte
[10] = Half life in mouse liver microsomes incubated upto 45 mins in presence of NADPH by LC-MS/MS analysis; format: ADME, Microsome
[11] = Clearance in mouse liver microsomes incubated upto 45 mins in presence of NADPH by LC-MS/MS analysis; format: ADME, Microsome; conditions: read-out: CLH
[12] = Toxicity in Balb/c mouse infected with blood stage Plasmodium yoelii assessed as animal death at 60 mg/kg, ip QD for 5 consecutive days and measured on day 30; format: organism-based; conditions: in vivo, 120 h, time 5 day
Plasmodium yoelii [13] = assay: Antiplasmodial activity against blood stage Plasmodium yoelii infected in Balb/c mouse assessed as reduction in parasitemia at 60 mg/kg, ip QD for 5 consecutive days and measured on day 30 by microscopic analysis; format: functional, organism-based; conditions: time 5.0 day
[14] = Toxicity in Balb/c mouse infected with blood stage Plasmodium yoelii assessed as animal death at 10 to 30 mg/kg, ip QD for 5 consecutive days and measured on day 6; format: organism-based; conditions: in vivo, 120 h, dose 10-30 mg/kg, time 5 day
Plasmodium yoelii [15] = assay: Antiplasmodial activity against blood stage Plasmodium yoelii infected in Balb/c mouse assessed as reduction in parasitemia at 10 to 30 mg/kg, ip QD for 5 consecutive days and measured on day 20 by microscopic analysis; format: functional, organism-based; conditions: dose 10-30 mg/kg, time 5.0 day
[16] = Toxicity in Balb/c mouse infected with blood stage Plasmodium yoelii assessed as recrudescence at 10 to 30 mg/kg, ip QD for 5 consecutive days and measured on day 20; format: organism-based; conditions: in vivo, 120 h, dose 10-30 mg/kg, time 5 day
[17] = Toxicity in Balb/c mouse infected with sporozoites liver stage Plasmodium berghei assessed as animal death at 30 mg/kg, ip administered as single dose and measured after 2 hrs; format: organism-based; conditions: in vivo
Plasmodium berghei = assay: Antiplasmodial activity against liver stage Plasmodium berghei infected in Balb/c mouse assessed as reduction in parasitemia at 30 mg/kg, ip administered as single dose by microscopic analysis; format: functional, organism-based
Plasmodium falciparum [18] = assay: Antiplasmodial activity against synchronized ring stage Plasmodium falciparum 3D7 infected in human erythrocytes assessed as new ring stage formation at 10 times IC50 incubated for 12 hrs followed by compound washout and measured at 50 hrs by […] analysis; format: functional, organism-based; conditions: Erythrocyte
Plasmodium falciparum [19] = assay: Antiplasmodial activity against schizont stage Plasmodium falciparum 3D7 infected in human erythrocytes assessed as reduction in parasitemia at 10 times IC50 incubated for 12 hrs followed by compound washout and measured at 96 hrs post infection by […] analysis; format: functional, organism-based; conditions: Erythrocyte
Plasmodium falciparum [20] = assay: Inhibition of Plasmodium falciparum HDAC assessed as hyperacetylation of histone H3 at 20 times IC50 incubated for 4 hrs by Western blot analysis
Plasmodium falciparum [21] = assay: (§1) Antimalarial activity against synchronized schizont stage transgenic Plasmodium falciparum 3D7 with C-terminal 3xTY1-fused HDAC1 knockdown assessed as parasite growth inhibition pretreated with glucosamine followed by compound treatment and incubated for 4 hrs followed by compound washout for thrice and subsequent culturing for 68 hrs by SYBR Green 1 staining based analysis; format: functional, organism-based
Plasmodium falciparum [22] = assay: as §1, with “HDAC2” for “HDAC1”; format: functional, organism-based
Plasmodium falciparum [23] = assay: as §1, with “glmS-fused HDAC2” for “3xTY1-fused HDAC1”; format: functional, organism-based
[24] = Inhibition of recombinant full length C-terminal His/FLAG-tagged Plasmodium falciparum HDAC1 expressed in baculovirus infected sf9 insect cells using fluorogenic […] as substrate preincubated for 1.5 hrs followed by substrate addition and measured after 30 mins by HDAC-GloI/II assay
[25] = Cmax in Balb/c mouse at 5 mg/kg, ip administered as single dose measured upto 24 hrs by LC-MS/MS analysis; format: ADME, organism-based; set-up: route intraperitoneal, dose 5 mg/kg, time <=24; conditions: in vivo
[26] = AUC (0 to infinity) in Balb/c mouse at 10 mg/kg, po administered as single dose measured upto 24 hrs by LC-MS/MS analysis; format: ADME, organism-based; set-up: route oral, dose 10 mg/kg, time <=24; conditions: in vivo
[27] = Apparent clearance during terminal phase in Balb/c mouse at 5 mg/kg, ip administered as single dose measured upto 24 hrs by LC-MS/MS analysis; format: ADME, organism-based; conditions: Balb/c, in vivo, read-out: CLz/F (converted)
[28] = Apparent volume of distribution during terminal phase in Balb/c mouse at 5 mg/kg, ip administered as single dose measured upto 24 hrs by LC-MS/MS analysis; format: ADME, organism-based; conditions: Balb/c, in vivo, read-out: Vz/F
[29] = Apparent volume of distribution during terminal phase in Balb/c mouse at 10 mg/kg, po administered as single dose measured upto 24 hrs by LC-MS/MS analysis; format: ADME, organism-based; conditions: in vivo
Plasmodium falciparum [30] = assay: Antiplasmodial activity against artemisinin-resistant Plasmodium falciparum 6218 assessed as reduction in parasite survival at 700 nM incubated for 6 hrs followed by compound washout thrice and further cultured in compound free medium for 66 hrs by RSA; format: functional, organism-based
Plasmodium falciparum [31] = assay: Antiplasmodial activity against artemisinin-resistant Plasmodium falciparum 6320 assessed as reduction in parasite survival at 700 nM incubated for 6 hrs followed by compound washout thrice and further cultured in compound free medium for 66 hrs by RSA; format: functional, organism-based

SMILES	IC50 (Plasmodium falciparum [1])	IC50 (Plasmodium falciparum [2])	IC50 (HepG2)	IC50 (HEK-293T)	selectivity ratio [3]	selectivity ratio [4]	IC50 (Plasmodium falciparum [5])	IC50 (Plasmodium falciparum [6])	IC50 (Plasmodium falciparum [7])	IC50 (Plasmodium falciparum [8])	IC50 (Plasmodium falciparum [9])	half-life [10]	CLint scaled [11]	Activity [12]	Activity (Plasmodium yoelii [13])	Activity [14]	Activity (Plasmodium yoelii [15])	also measured
Cl.Cn1cc(CN2CCC3(CCN(c4ncc(C(=O)NO)cn4)CC3)C2)c2cccnc21	3 nM	3.4 nM	281 nM	399 nM	93	132	6.4 nM	6.18 nM	6.8 nM	5 nM	5.2 nM	2.75 h	33.1 mL/min/kg	Non-Toxic	inactive			
Cl.Cn1cc(CN2CCC3(CCN(c4ncc(C(=O)NO)cn4)CC3)C2)c2ccncc21	3 nM	5.6 nM	792 nM	537 nM	265	180	4.4 nM	4.9 nM	5.7 nM	3.8 nM	3.9 nM	3.06 h	29.7 mL/min/kg			Non-Toxic	inactive	Activity [16]: Toxic
Cl.Cn1cc(CNCC2CCN(c3ncc(C(=O)NO)cn3)CC2)c2ccccc21 [QUISINOSTAT HYDROCHLORIDE]	5.2 nM	7.09 nM	42 nM	48 nM			1.7 nM	2.53 nM			1.62 nM		410 mL/min/kg			Toxic	inactive	Activity [17]: Toxic; Activity (Plasmodium berghei): inactive; Activity (Plasmodium falciparum [18]): Active; Activity (Plasmodium falciparum [19]): Active; inhibition (Plasmodium falciparum [20]): Active; IC50 (Plasmodium falciparum [21]): 12.4 nM; IC50 (Plasmodium falciparum [22]): 17.2 nM; IC50 (Plasmodium falciparum [23]): 23.7 nM; IC50 [24]: 0.003 nM; Cmax [25]: 88.7 ng/mL; AUC(0-inf) [26]: 5.98 ng·h/mL; CL/F [27]: 462 mL/min/kg; Vd/F [28]: 245 L/kg; Vz/F [29]: 4172 L/kg; Activity (Plasmodium falciparum [30]): Active; Activity (Plasmodium falciparum [31]): Active
Cl.Cn1cc(CN2CCC3(CCN(c4ncc(C(=O)NO)cn4)CC3)C2)c2ncccc21	3.22 nM	4.3 nM	855 nM	755 nM	266	235	3.7 nM	5 nM	5.5 nM	4.04 nM	3.8 nM	2.25 h	40.4 mL/min/kg	Non-Toxic	inactive			

— ChEMBL document CHEMBL4706683 (J Med Chem, 2021)
